# Laboratory results reported in patent US20080247991A1, “Solution Additives For the Attenuation of Protein Aggregation” (priority 2004, published 2008).
# Experiments:
# [1] = target: Human insulin (I8530), Sigma-Aldrich (human) (UniProt P01308); experiment: SPR; association rate constant in HBS-EP + 0.5 M GuHCl relative to HBS-EP + 0.5 M NaCl
# [2] = target: Human insulin (I8530), Sigma-Aldrich (human) (UniProt P01308); experiment: SPR; association rate constant in HBS-EP + 0.5 M ArgHCl relative to HBS-EP + 0.5 M NaCl
# [3] = target: Human insulin (I8530), Sigma-Aldrich (human) (UniProt P01308); experiment: SPR; dissociation rate constant in HBS-EP + 0.5 M GuHCl relative to HBS-EP + 0.5 M NaCl
# [4] = target: Human insulin (I8530), Sigma-Aldrich (human) (UniProt P01308); experiment: SPR; dissociation rate constant in HBS-EP + 0.5 M ArgHCl relative to HBS-EP + 0.5 M NaCl
# [5] = target: Human insulin (I8530), Sigma-Aldrich (human) (UniProt P01308); experiment: SPR, Biacore 3000, antibody immobilised on CM5, insulin as analyte, 1:1 model; HBS-EP + 0.5 M NaCl
# [6] = target: Human insulin (I8530), Sigma-Aldrich (human) (UniProt P01308); experiment: SPR, Biacore 3000, antibody immobilised on CM5, insulin as analyte, 1:1 model; HBS-EP + 0.5 M GuHCl
# [7] = target: Human insulin (I8530), Sigma-Aldrich (human) (UniProt P01308); experiment: SPR, Biacore 3000, antibody immobilised on CM5, insulin as analyte, KD = kd/ka; HBS-EP + 0.5 M NaCl
# [8] = target: Human insulin (I8530), Sigma-Aldrich (human) (UniProt P01308); experiment: SPR, Biacore 3000, antibody immobilised on CM5, insulin as analyte, 1:1 model; HBS-EP + 0.5 M ArgHCl
# [9] = target: Human insulin (I8530), Sigma-Aldrich (human) (UniProt P01308); experiment: SPR, Biacore 3000, antibody immobilised on CM5, insulin as analyte, KD = kd/ka; HBS-EP + 0.5 M GuHCl
# [10] = target: Human insulin (I8530), Sigma-Aldrich (human) (UniProt P01308); experiment: SPR, Biacore 3000, antibody immobilised on CM5, insulin as analyte, KD = kd/ka; HBS-EP + 0.5 M ArgHCl
# [11] = target: T1, insulin binding to immobilized monoclonal anti-insulin (Homo sapiens, UniProt P01308); experiment: Surface plasmon resonance (Biacore 3000): globular protein association/dissociation kinetics in buffer with additive; conditions: 0.5 M additive in HBS-EP, pH 7.4; estimated error 15%
# T1 construct: purchased Sigma-Aldrich (insulin); Fitzgerald Industries (antibody) I8530; 10-130 clone M322214
# Description: Surface plasmon resonance experiments were conducted to measure the effect of added ArgHCl and GuHCl on the kinetics of globular protein association and dissociation versus an equimolar salt control (NaCl). The data set shown in the figure is a composition of 8 different concentration runs plus replicates, for a total of 16 runs. At t=140 sec, the flow cell with immobilized anti-insulin was exposed to a constant concentration of insulin in the range of 2 to 188 nM for 3 minutes. During this 3 minutes, the antibody and antigen were free to associate and dissociate. The net reaction is the binding of free antigen in solution, resulting in an increase in detector response proportional to the mass of antigen bound. At t=320 sec, the insulin concentration in the flow cell inlet is returned to zero, and the bound antigen then dissociates from the surface. All 16 runs were simultaneously fit to a binding model by minimizing the squared residuals to yield the association and dissociation rate constants, ka and kd. This process was repeated to yield association, dissociation, and equilibrium constant data for the model systems in various buffers as shown in Table 4.
# Globular Protein Association Kinetics—Protein association and dissociation rate constants, ka and kd, were measured for globular proteins via surface plasmon resonance on a Biacore 3000 instrument. Monoclonal anti-insulin was immobilized on a Biacore CM5 sensor chip via amine coupling. The amount of immobilized antibody was selected to give a detector response in the range of 50-100 RU when antigen was present. A reference surface was created by activating and deactivating the surface without coupling an antibody to it.
# Different concentrations of insulin in the nanomolar range ([…]) were prepared by dilution and injected serially into the antibody-containing and reference flow cells. […] Pocker, Y. & Biswas, Subhasis, B. (1981) Biochemistry 20, 4354-4361. The dissociation rate was sufficiently fast in buffer that a regeneration buffer was not required. Kinetic constants were extracted by simultaneous fitting of ka and kd to each set of sensorgrams using a 1:1 kinetic model in the BIAevaluation 3.0 software package.
# [12] = target: T2, carbonic anhydrase II (Bos taurus, UniProt P00921); experiment: Size exclusion HPLC of multimers formed during refolding of carbonic anhydrase; design: purchased Sigma-Aldrich C2522; species or system bovine; conditions: [U]0 = 5 μM, 0.5 M additive; for Large multimers, percentage of total carbonic anhydrase: inferred by difference
# Description: Size exclusion HPLC experiments were performed to analyze the distribution of multimers formed during refolding. CA was refolded with three different additives, 0.5M NaCl, 0.5M GuHCl, and 0.5M ArgHCl, relative to a base refolding buffers of 0.5M GuHCl, as done in the esterase activity assays above. […] Other than this protein concentration difference, these experiments allow direct comparison of how an additional 0.5M of the three different cations affect refolding.
# The samples were not filtered prior to introduction into the HPLC column.
# Size Exclusion HPLC—Size exclusion HPLC (SE-HPLC) experiments were performed on a Beckman System Gold HPLC instrument equipped with a Tosohaas G3000SWXL size exclusion column and a UV detector. 30 μl samples were introduced to the column by a constant flow of 1 ml/min mobile phase. Each sample ran for 15 minutes, with carbonic anhydrase eluting between 6 and 10 minutes, depending on its molecular weight and buffer. […] A mixture of lysozyme, carbonic anhydrase, and bovine serum albumin (monomer and dimer) was used as a standard to calibrate molecular weight to retention time. Using this calibration curve and the breakthrough time of the column, the largest multimer that could pass through the column was a 15-mer. When significant mass was missing from a chromatogram, large multimers were quantitated by difference. The presence of large multimers was confirmed via turbidity or dynamic light scattering for each buffer. The instrument was cleaned with 30 μl injections of 4M GuHCl, a denaturing concentration found to dissociate and elute precipitates and large soluble carbonic anhydrase multimers.
# [13] = target: T2, carbonic anhydrase II; experiment: Carbonic anhydrase refolding yield by esterase activity (pNPA)
# Description: Esterase activity assays were performed as a function of initial unfolded protein concentration and buffer composition to determine how equimolar concentrations of NaCl, ArgHCl, and GuHCl each affected refolding yield (FIG. 16).
# High concentrations of carbonic anhydrase (>300 μM) were denatured in 6M GuHCl and equilibrated overnight. Refolding was initiated by dilution to 0.5M GuHCl with 50 mM Tris-HCl buffer, pH 7.5. This final GuHCl concentration was selected because it yields a mixture of active, refolded protein and aggregates. The distribution of this mixture was analyzed via esterase activity, size exclusion HPLC, and dynamic light scattering as described above.
# Carbonic Anhydrase Esterase Activity—Esterase activity of carbonic anhydrase was assessed using para-nitrophenylacetate (pNPA) as the substrate as described previously. […] Briefly, 10 μl samples of carbonic anhydrase solution were added to 500 μl of Tris-HCl, pH 7.5 and 50 μl of 50 mM pNPA in acetonitrile. Kinetics of hydrolysis of pNPA was observed by the increase in absorbance at 400 nm due to the appearance of the paranitrophenolate ion (pNP^−). In all cases, the observed hydrolysis rate in absorbance units per second (AU/s) under these conditions was constant (pseudo-zero order). Hydrolysis rates were corrected for the hydrolysis of pNPA by the buffer for each type of buffer used. […] The active protein concentration data was reproducible to within 5-8% in replicated experiments.
# T2 sequence (P00921 whole entry): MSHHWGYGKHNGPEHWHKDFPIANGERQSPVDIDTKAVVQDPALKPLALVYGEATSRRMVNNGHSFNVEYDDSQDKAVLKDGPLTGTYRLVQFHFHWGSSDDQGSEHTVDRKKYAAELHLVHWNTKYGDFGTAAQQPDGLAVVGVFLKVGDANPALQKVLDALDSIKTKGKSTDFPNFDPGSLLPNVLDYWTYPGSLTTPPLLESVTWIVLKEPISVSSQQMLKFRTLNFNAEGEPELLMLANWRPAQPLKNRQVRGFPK
# Chain of Human insulin (I8530), Sigma-Aldrich (human) (P01308 25-54 limits assumed, chain 1 of 2): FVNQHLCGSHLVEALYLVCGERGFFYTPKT
# Chain of Human insulin (I8530), Sigma-Aldrich (human) (P01308 90-110 limits assumed, chain 2 of 2): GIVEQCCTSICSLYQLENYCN
# T1 sequence (P01308 25-54 limits assumed): as the sequence (P01308 25-54 limits assumed, chain 1 of 2) above
compound,measurement,setting,value
"Monoclonal anti-insulin (10-130 clone M322214), Fitzgerald Industries (antibody)",ka/ka0,[1],0.91
same,ka/ka0,[2],0.27
same,kd/kd0,[3],6.7
same,kd/kd0,[4],1.6
same,koff,[5],0.014 s⁻¹
same,kon,[5],44000 M⁻¹ s⁻¹
same,koff,[6],0.094 s⁻¹
same,kon,[6],40000 M⁻¹ s⁻¹
same,Kd,[7],320 nM
same,koff,[8],0.022 s⁻¹
same,kon,[8],12000 M⁻¹ s⁻¹
same,Kd,[9],2400 nM
same,Kd,[10],1800 nM
"[Cl-].[Na+] [NaCl, sodium chloride]",ka,[11],44000 M⁻¹ s⁻¹
same,kd,[11],0.014 s⁻¹
same,"A2, percentage of total carbonic anhydrase",[12]; time 2 min,0%
same,"A3-5, percentage of total carbonic anhydrase",[12]; time 2 min,0%
same,"A6-15, percentage of total carbonic anhydrase",[12]; time 2 min,0%
same,"M (monomer), percentage of total carbonic anhydrase",[12]; time 2 min,56%
same,"Large multimers, percentage of total carbonic anhydrase",[12]; time 2 min,44%
same,"A2, percentage of total carbonic anhydrase",[12]; time 20 min,0%
same,"A3-5, percentage of total carbonic anhydrase",[12]; time 20 min,0%
same,"A6-15, percentage of total carbonic anhydrase",[12]; time 20 min,0%
same,"M (monomer), percentage of total carbonic anhydrase",[12]; time 20 min,56%
same,"Large multimers, percentage of total carbonic anhydrase",[12]; time 20 min,44%
same,"A2, percentage of total carbonic anhydrase",[12]; time 38 min,0%
same,"A3-5, percentage of total carbonic anhydrase",[12]; time 38 min,0%
same,"A6-15, percentage of total carbonic anhydrase",[12]; time 38 min,0%
same,"M (monomer), percentage of total carbonic anhydrase",[12]; time 38 min,56%
same,"Large multimers, percentage of total carbonic anhydrase",[12]; time 38 min,44%
same,α/α0,"[13]; 0.5 M additive, relative to 0.5M NaCl, base buffer 0.5 M GuHCl",1
same,"α (refolding selectivity parameter, kr/kagg)","[13]; 0.5 M additive, base buffer 0.5 M GuHCl, fit to second-order aggregation model",9.3 µM
same,order of yield of active protein as a function of buffer additive,[13]; equimolar (0.5M) additives,NaCl<<ArgHCl<GuHCl
